Data reported in patent US20060088843A1 (priority 2004, published 2006).

What was measured:
[1] = system: NAChR; assay type: binding
[2] = system: herpesvirus; settings: cited from earlier work
[3] = system: Semliki Forest virus; settings: cited from earlier work
[4] = pI and pH of protein solutions; assay type: physicochemical
[5] = Antiviral activity in similar assays (not specified)
[6] = system: mice; assay: Toxicity assay in mice

autoclaved alpha-cobratoxin
binding to native receptor [1]: still capable of binding to its native receptor | antiviral activity against herpes [2]: no antiviral activity | antiviral activity against Semliki Forest virus [3]: no antiviral activity

alpha-cobratoxin [native alpha-cobratoxin]
pH of solution [4]: 10.4 | pI [4]: 9.6 | antiviral activity [5]: does not demonstrate antiviral activity | antiviral activity against herpes [2]: does not have any antiviral activity | antiviral activity against Semliki Forest virus [3]: does not have any antiviral activity | LD50 in mice ([6]; injected subcutaneously or intra-peritoneally): 1.2 µg | time to death ([6]; injection of 1.5 mcg, 25 g mouse): ≤ 25 min
